Several values for one entry are separate records, joined by “and”; a condition that tells them apart may be missing. Equal values may be shown once. Inconclusive results are not listed.
System: nude mice, HT29 intrarenal xenograft, tumor weight T/C
Assay: NCI In Vivo Anticancer Drug Screen. Data for tumor model HT29;CX-1 Human Adenocarcinoma (MER+) (intrarenal inoculation) in NU/NU Swiss (nude) mice
Settings: endpoint: mean tumor weight change, higher = larger tumour
How it was run: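 Endpoint measured as tumor size or survival; ratio reported is treated group over vehicle controls.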

[1] = dose: 200.0 mg/kg/injection, schedule: Q04DX004 (sc), vehicle: saline with Tween-80
[2] = dose: 600.0 mg/kg/injection, schedule: Q04DX004 (sc), vehicle: Klucel (hydroxypropylcellulose) (HPC)
[3] = dose: 1200.0 mg/kg/injection, schedule: Q04DX004 (sc), vehicle: Klucel (hydroxypropylcellulose) (HPC)
[4] = dose: 2400.0 mg/kg/injection, schedule: Q04DX004 (sc), vehicle: Klucel (hydroxypropylcellulose) (HPC)
[5] = dose: 600.0 mg/kg/injection, schedule: Q04DX004 (sc), vehicle: suspension in saline
[6] = dose: 1200.0 mg/kg/injection, schedule: Q04DX004 (sc), vehicle: suspension in saline
[7] = dose: 25.0 mg/kg/injection, schedule: Q01DX010 (sc), vehicle: saline

`CSC1SCC2C(=O)N(C)C(C(C)C)C(=O)OCC(NC(=O)c3cnc4ccccc4n3)C(=O)NC(C)C(=O)N(C)C1C(=O)N(C)C(C(C)C)C(=O)OCC(NC(=O)c1cnc3ccccc3n1)C(=O)NC(C)C(=O)N2C` (centres undefined) was tested, and the T/C (dose: 30.0 micrograms/kg/injection, schedule: Q01DX010 (sc), vehicle: suspension in saline) was 88 % of control, the T/C (dose: 60.0 micrograms/kg/injection, schedule: Q01DX010 (sc), vehicle: saline) was 49 % of control and the T/C (dose: 120.0 micrograms/kg/injection, schedule: Q01DX010 (sc), vehicle: saline) was 35 % of control. For the same compound, the T/C (dose: 240.0 micrograms/kg/injection, schedule: Q01DX010 (sc), vehicle: saline) was 12 % of control.

For `CC1=CC(C)(C)Nc2ccc(CSc3ccccc3)cc21`, the T/C (dose: 75.0 mg/kg/injection, schedule: Q01DX010 (sc), vehicle: saline + Tween-80 + alcohol) was 53 % of control, the T/C (dose: 150.0 mg/kg/injection, schedule: Q01DX010 (sc), vehicle: saline + Tween-80 + alcohol) was 74 % of control and the T/C (dose: 300.0 mg/kg/injection, schedule: Q01DX010 (sc), vehicle: saline + Tween-80 + alcohol) was 50 % of control. For the same compound, the T/C (dose: 600.0 mg/kg/injection, schedule: Q01DX010 (sc), vehicle: saline + Tween-80 + alcohol) was 66 % of control.

With `COC(C(=O)C(O)C(C)O)C1Cc2cc3cc(OC4CC(OC(C)=O)C(OC5CC(O)C(OC)C(C)O5)C(C)O4)cc(O)c3c(O)c2C(=O)C1OC1CC(OC2CC(OC3CC(C)(O)C(OC(=O)C(C)C)C(C)O3)C(O)C(C)O2)C(O)C(C)O1` (centres undefined) the T/C (dose: 0.5 mg/kg/injection, schedule: Q01DX010 (sc), vehicle: saline with Tween-80) was 73 % of control, the T/C (dose: 1.0 mg/kg/injection, schedule: Q01DX010 (sc), vehicle: saline with Tween-80) was 97 % of control and the T/C (dose: 1.0 mg/kg/injection, schedule: Q04DX004 (sc), vehicle: saline with Tween-80) was 95 % of control. The T/C (dose: 2.0 mg/kg/injection, schedule: Q01DX010 (sc), vehicle: saline with Tween-80) was 105 % of control, the T/C (dose: 2.0 mg/kg/injection, schedule: Q04DX004 (sc), vehicle: saline with Tween-80) was 47 % of control and the T/C (dose: 4.0 mg/kg/injection, schedule: Q04DX004 (sc), vehicle: saline with Tween-80) was 50 % of control.

With `NC(=S)c1cn(C2OC(CO)C(O)C2O)c2ncnc(N)c12` (centres undefined) the T/C (dose: 6.25 mg/kg/injection, schedule: Q04DX004 (sc), vehicle: suspension in saline) was 62 % of control and the T/C (dose: 12.5 mg/kg/injection, schedule: Q04DX004 (sc), vehicle: suspension in saline) was 79 % of control.

For `NC(=O)c1csc(C2OC(CO)C(O)C2O)n1` (centres undefined), the T/C (dose: 125.0 mg/kg/injection, schedule: Q04DX004 (sc), vehicle: water) was 119 % of control.

In the case of `COc1ccc(-c2csc(=[N+]3CCCCC3)s2)cc1`, the T/C (dose: 6.25 mg/kg/injection, schedule: Q04DX004 (sc), vehicle: water) is reported as 227 % of control and the T/C (dose: 12.5 mg/kg/injection, schedule: Q04DX004 (sc), vehicle: water) is reported as 118 % of control.

`CC1CN1C(=O)NCCCCCCNC(=O)N1CC1C` (centres undefined) was tested, and the T/C (dose: 10.0 mg/kg/injection, schedule: Q04DX004 (sc), vehicle: Klucel (hydroxypropylcellulose) (HPC)) was 36 % of control and the T/C (dose: 40.0 mg/kg/injection, schedule: Q04DX004 (sc), vehicle: Klucel (hydroxypropylcellulose) (HPC)) was 16 % of control.

With `Cc1ccc2c(c1)N=C(Nc1ccccc1)N=S2(C)=O` (centres undefined) the T/C (dose: 50.0 mg/kg/injection, schedule: Q04DX004 (sc), vehicle: saline with Tween-80) was 48 % of control, the T/C (dose: 100.0 mg/kg/injection, schedule: Q04DX004 (sc), vehicle: saline with Tween-80) was 67 % of control and the T/C [1] was 66 % of control.

`C(C#CCN1CCOCC1)#CCN1CCOCC1` was tested, and the T/C [2] was 100 % of control, the T/C [3] was 72 % of control and the T/C [4] was 68 % of control.

With `CCOC(=O)C(N)CSC(=O)NC` (centres undefined) the T/C (dose: 100.0 mg/kg/injection, schedule: Q04DX004 (sc), vehicle: saline) was 92 % of control, the T/C (dose: 200.0 mg/kg/injection, schedule: Q04DX004 (sc), vehicle: saline) was 96 % of control and the T/C (dose: 400.0 mg/kg/injection, schedule: Q04DX004 (sc), vehicle: saline) was 103 % of control. For the same compound, the T/C (dose: 800.0 mg/kg/injection, schedule: Q04DX004 (sc), vehicle: saline) was 62 % of control.

For `Cc1cc(NCCCCCCNc2cc(C)nc3cc(N(C)C)ccc23)c2ccc(N(C)C)cc2n1`, the T/C (dose: 37.5 mg/kg/injection, schedule: Q04DX004 (sc), vehicle: distilled water + Tween-80 + alcohol) was 112 % of control and the T/C (dose: 75.0 mg/kg/injection, schedule: Q04DX004 (sc), vehicle: distilled water + Tween-80 + alcohol) was 42 % of control.

`BrCC[Se]c1ccccc1` was tested, and the T/C [1] was 16 % of control.

With `N=C(N)SCc1cccc2c(=O)cc(-c3ccccc3)oc12` the T/C (dose: 150.0 mg/kg/injection, schedule: Q04DX004 (sc), vehicle: suspension in saline) was 110 % of control, the T/C (dose: 300.0 mg/kg/injection, schedule: Q04DX004 (sc), vehicle: suspension in saline) was 113 % of control and the T/C [5] was 106 % of control. The T/C [6] was 69 % of control.

`CC1=CC2C(O)(CC(CO)=CC3C4C(C)(C)C4(OC(=O)c4ccccc4)C(OC(=O)c4ccccc4)C(C)C32O)C1=O` (centres undefined) was tested, and the T/C (dose: 5.0 mg/kg/injection, schedule: Q04DX004 (sc), vehicle: saline with Tween-80) was 43 % of control.

In the case of `OCCO`, the T/C (dose: 4.0 % in 0.5 ml injection vol, schedule: Q04DX004 (sc), vehicle: other) is reported as 85 % of control, the T/C (dose: 8.0 % in 0.5 ml injection vol, schedule: Q04DX004 (sc), vehicle: other) is reported as 46 % of control and the T/C (dose: 16.0 % in 0.5 ml injection vol, schedule: Q04DX004 (sc), vehicle: other) is reported as 26 % of control.

For `COc1cc2c(c(OC)c1OC)-c1ccc(OC)c(=O)cc1[C@@H](NC(C)=O)CC2`, the T/C (dose: 0.5 mg/kg/injection, schedule: Q01DX010 (sc), vehicle: saline) was 70 % of control.

For `C=C(C)C(=O)OC1C/C(CO)=C\C(O)C/C(C)=C/C2OC(=O)C(=C)C21` (centres undefined), the T/C (dose: 20.0 mg/kg/injection, schedule: Q04DX004 (sc), vehicle: saline + alcohol) was 100 % of control, the T/C (dose: 40.0 mg/kg/injection, schedule: Q04DX004 (sc), vehicle: saline + alcohol) was 83 % of control and the T/C (dose: 80.0 mg/kg/injection, schedule: Q04DX004 (sc), vehicle: saline + alcohol) was 70 % of control.

`O=Cc1ccc(C(Cl)(Cl)Cl)cc1` was tested, and the T/C (dose: 100.0 mg/kg/injection, schedule: Q01DX010 (sc), vehicle: saline with Tween-80) was 121 % of control and the T/C (dose: 400.0 mg/kg/injection, schedule: Q01DX010 (sc), vehicle: saline with Tween-80) was 107 % of control.

With `CC(=O)[C@]1(O)Cc2c(O)c3c(c(O)c2[C@@H](OC2CC(N)C(O)C(C)O2)C1)C(=O)c1c(O)cccc1C3=O` (some centres undefined) the T/C (dose: 0.63 mg/kg/injection, schedule: Q04DX004 (sc), vehicle: saline) was 50 % of control and the T/C (dose: 1.25 mg/kg/injection, schedule: Q04DX004 (sc), vehicle: saline) was 68 % of control.

With `C/C(=N\NC(N)=O)c1cccc(/C(C)=N/NC(N)=O)n1` the T/C [1] was 106 % of control and the T/C (dose: 400.0 mg/kg/injection, schedule: Q04DX004 (sc), vehicle: saline with Tween-80) was 108 % of control.

For `COC1=C(C)C(=O)C2=C(C1=O)C1C3CC4=C(C(=O)C(OC)=C(C)C4=O)C(CNC(=O)C(C)=O)N3C(C#N)C(C2)N1C` (centres undefined), the T/C (dose: 1.0 mg/kg/injection, schedule: Q04DX004 (sc), vehicle: Klucel (hydroxypropylcellulose) (HPC)) was 99 % of control and the T/C (dose: 2.0 mg/kg/injection, schedule: Q04DX004 (sc), vehicle: Klucel (hydroxypropylcellulose) (HPC)) was 75 % of control.

For `C=CS(C=C)=NS(=O)(=O)c1ccc(C)cc1`, the T/C (dose: 18.75 mg/kg/injection, schedule: Q04DX004 (sc), vehicle: Klucel (hydroxypropylcellulose) (HPC)) was 91 % of control and the T/C (dose: 37.5 mg/kg/injection, schedule: Q04DX004 (sc), vehicle: Klucel (hydroxypropylcellulose) (HPC)) was 60 % of control.

With `CC(=O)Oc1c(C)[nH]ccc1=O` the T/C [5] was 112 % of control and the T/C [6] was 77 % of control.

For `CN(C)C(=O)SC1=C(c2c(Cl)cccc2Cl)C(=O)c2ccccc21`, the T/C (dose: 300.0 mg/kg/injection, schedule: Q04DX004 (sc), vehicle: Klucel (hydroxypropylcellulose) (HPC)) was 95 % of control and the T/C [2] was 158 % of control.

In the case of `COc1cccc2c1C(=O)c1c(O)c3c(c(O)c1C2=O)C[C@@](O)(/C(C)=N/NC(=O)c1ccccc1)C[C@@H]3OC1CC(N)C(O)C(C)O1` (some centres undefined), the T/C (dose: 18.75 mg/kg/injection, schedule: Q04DX004 (sc), vehicle: water) is reported as 117 % of control and the T/C (dose: 37.5 mg/kg/injection, schedule: Q04DX004 (sc), vehicle: water) is reported as 123 % of control.

With `CN(CO)c1nc(N(C)CO)nc(N(C)CO)n1` the T/C [7] was 65 % of control and 81 % of control and the T/C (dose: 100.0 mg/kg/injection, schedule: Q01DX010 (sc), vehicle: saline) was 17 % of control.

`C#C[C@]1(O)CC[C@H]2[C@@H]3CCc4cc(O)ccc4[C@H]3CC[C@@]21C` was tested, and the T/C [2] was 91 % of control, the T/C [3] was 83 % of control and the T/C [4] was 80 % of control.

For `C1OC1C1CO1` (centres undefined), the T/C (dose: 12.5 mg/kg/injection, schedule: Q01DX010 (sc), vehicle: saline) was 164 % of control and the T/C [7] was 168 % of control.

Reference: PubChem BioAssay AID206 (DTP/NCI, 2004)
